Six compounds from paper PMC8298232 (Archives of Toxicology, 2021) can be followed below.

The Tmax is the time from dosing to the highest level. The Cmax is the highest concentration seen after dosing.

“And” between values parts separate entries of the source, which are not always exact repeats. Equal values may be shown once. Some results are limits rather than exact numbers.

A short description of data set [1]: Renal elimination kinetics of UV 328 and its metabolites in urine after single oral exposure. Particulars: for Tmax / half-life: both, human, urine, po; for half-life: t½ (renal elimination half-life); for REmax (maximum renal excretion rate): human urine with hydrolysis; for REmax (maximum renal excretion rate) / FUE after 24 h (urinary excretion factor as dose equivalents of UV 328) / FUE after 72 h ≙ Fraction of oral dose: mean ± SD; for FUE after 24 h (urinary excretion factor as dose equivalents of UV 328): 0–24 h; for FUE after 72 h ≙ Fraction of oral dose: 0–72 h; for share of cumulative amounts of all quantified analytes in urine: urine with hydrolysis, cumulative within 72 h. The method, then:
Three volunteers (two men and one person, mean age 37.3 ± 15.5, mean body weight 81.3 ± 6.1 kg) were selected for the in vivo study. Prior to oral exposure, every volunteer collected one urine sample. Additionally, one blood sample was taken using EDTA-Monovettes® (Sarstedt, Nümbrecht, Germany) before exposure. […] Thereby, a safety factor of 100 was considered for single application and interspecies differences, resulting in a dose of 0.3 mg/kg bw. […] Participants collected the total urine volume of each void separately throughout 72 h and recorded the respective sampling times. […] The urine samples were volumetrically measured for each sampling point, aliquoted in urine Monovettes® (Sarstedt, Nümbrecht, Germany) and stored frozen at − 50 °C until analysis.
The urine samples were processed according to a previously published procedure (Denghel and Göen [2020]). In brief, urine samples were enzymatically hydrolyzed using β-glucuronidase/arylsulfatase from Helix pomatia. […] The extracts were derivatized with BSA/TMCS and TSIM and finally measured via GC–MS/MS with advanced electron ionization (AEI).
Thereby, RE,i is the renal excretion rate for the urine sample i (in µg/h), ci is the analyte concentration in the urine sample (in µg/L), Vi is the volume of the urine sample (in L) and ti and ti-1 are the elapsed time values (in h) of the sample and the previous sample, respectively.
Afterwards, the time course of the excretion rates RE,i was recorded for the middle of the respective sampling period (ti,m in h) according to the equation: ti,m=ti-1+ti-ti-1/2.
The current excretion rates were plotted as a function of the average time of the respective sampling period for every volunteer and each analyte.
Finally, mean excretion curves were calculated by taking the average of related urinary sampling times and the corresponding renal excretion rates (in µg/h) for all volunteers’ samples (arithmetic mean ± standard deviation). The mean cumulative excreted amount (in µmol) of all volunteers was obtained by addition of each molar excreted amount: ∑i=0nci×Vi/M.
Thereby, ci is the concentration of the metabolite in urine (in µg/L), Vi is the volume of the respective urine sample (in L) and M is the molar mass of the respective metabolite (in µg/µmol).
Afterwards, excretion half-lives (t1/2) (in h) were ascertained as described in Sect. “Evaluation of blood kinetics” by plotting the current excretion rates as function of time.

Data set [2] can be described thus: Kinetics of UV 328 and its metabolites in blood after single oral exposure of volunteers. Format: in vivo, human. Particulars: for share among the quantified metabolites in blood: blood samples 8 h after exposure, without hydrolysis; for Cmax / Tmax / half-life / concentration at 24 h: both sexes. The method, then: Furthermore, blood samples were drawn from each volunteer 2, 4, 6, 8, 10, 24, […] 48 h after exposure. In summary, […] blood samples were collected from every volunteer. One volunteer donated two EDTA—Monovettes® (Sarstedt, Nümbrecht, Germany) for every time point. So, for every sampling time one sample was kept as whole blood while the plasma fraction was extracted for the other. In this case, the respective blood vessels were centrifuged at 800 × g for 5 min. The supernatants were transferred to 15 mL conical plastic tubes (Sarstedt, Nümbrecht, Germany). Both blood and plasma samples were stored frozen at − 50 °C until analysis.
Analysis of blood samples was performed according to a previously published method (Denghel and Göen [2021]). In summary, blood proteins and cellular components were precipitated by the addition of ACN. Afterwards, the supernatant was diluted with sodium chloride solution and the investigated analytes were extracted by dispersive liquid–liquid microextraction (DLLME) using a mixture of CH2Cl2 and ACN. […] Variation coefficients ranged from 2 to 9% for precision in series and from 3 to 11% for interday precision. Additionally, relative recovery rates between 80 and 100% were found.
The ln-transformed mean excretion curve was plotted against the time (in h) to obtain the slope (kel, elimination rate constant) and the excretion half-life (t1/2) as follows: t1/2=ln2/|kel|.

Data set [3] in a line: Distribution between blood compartments (plasma to blood ratio). The data set is classed as in vivo, human.
Experimental: Furthermore, blood samples were drawn from each volunteer 2, 4, 6, 8, 10, 24, 34 and 48 h after exposure. In summary, eight blood samples were collected from every volunteer. […] So, for every sampling time one sample was kept as whole blood while the plasma fraction was extracted for the other. In this case, the respective blood vessels were centrifuged at 800 × g for 5 min. The supernatants were transferred to 15 mL conical plastic tubes (Sarstedt, Nümbrecht, Germany). Both blood and plasma samples were stored frozen at − 50 °C until analysis.
Therefore, the concentrations of the analytes in whole blood and plasma were determined according to the SOP (Denghel and Göen [2021]) and an established procedure (see supplemental material), respectively. The results for whole blood and plasma were plotted against the time points of the respective sampling and the plasma to blood ratios (p/b) were calculated by a simplified approach for estimating the AUC ratios. Therefore, all plasma concentrations (in µg/L) determined were added and divided through the sum of the respective blood concentrations (in µg/L) according to the equation: p/b=∑i=0ncplasma/∑i=0ncblood.
Analysis of plasma samples
For the analysis of plasma samples, the procedure for blood samples was adjusted as follows: Initially, CPD plasma was equilibrated to room temperature and homogenized by manual shaking. Frozen samples of the study participants were thawed, equilibrated to room temperature, and homogenized using a vortex mixer. Aliquots of 1 mL were prepared with 10 µL of the internal standard mix. Afterwards, the plasma proteins were precipitated by the additions of 3 mL ACN with 0.1 % formic acid. The samples were vortex-blended for 1 min and centrifuged for 15 min at 3000 x g. The supernatants were transferred into 25 mL tubes with conical bottom (Sarstedt, Nümbrecht, Germany) and diluted with 4 mL of 1 % sodium chloride solution. Afterwards, a mixture of 800 µL CH 2Cl2 and 800 µL ACN was added to every tube. Again, the samples were vortex - blended for 1 min and centrifuged for 15 min at 3000 x g. The upper organic phases wer e transferred into 3 mL screw vials (Müller + Krempel AG, Bülach, Switzerland) and dried under nitrogen. The residues were derivatized with 90 µL BSA + 5 % TMCS. After 30 min reaction time at room temperature, 10 µL of 10 % TSIM were added. The samples wer e transferred to micro inserts, sealed with crimping caps, and incubated at 40 °C for 90 min. Finally, measurement was performed using GC -MS/MS
Data set [4] can be described thus: Shares of conjugated analytes in urine (analysis with and without β-glucuronidase/arylsulfatase hydrolysis). The note with it: for Conjugation ratio: urine of one volunteer, with vs without hydrolysis. The method, then:
The analysis of urine samples was performed with and without hydrolysis for one volunteer to determine the shares of analytes conjugated with glucuronic acid or sulfate. Initially, urine samples were thawed, equilibrated to room temperature and homogenized using a vortex mixer. Afterwards, the Monovettes® were centrifuged for 2 min at 1600 g to sediment solid residue in the sample. 1 mL of the sample was transferred into a 15 mL conical tube (Sarstedt, Nümbrecht, Germany). Without hydrolysis, 1 mL of the urine samples was prepared with 200 μL of ammonium acetate buffer (1 mol/L, pH 6) and 10 μL of the internal standard mix solution. […] Finally, the calculated analyte excretion rates (see Sect. “Evaluation of renal elimination”) obtained with hydrolysis were correlated with the ones prepared without hydrolysis for every detected compound. A linear curve fit was applied to the plotted data points. The resulting slope of the regression line described the percentage of free and therefore unconjugated analyte.
Therefore, urine samples of one volunteer were analyzed with and without addition of β-glucuronidase/arylsulfatase from Helix pomatia and incubation according to the standard procedure previously published (Denghel and Göen [2020]) (see Sect. “Analysis of urine samples without hydrolysis”).

The mark [5] stands for this setting: 0.3 mg/kg, human urine, monophasic, oral 0.3 mg/kg bw, n = 3.
[6] abbreviates: human, whole blood, po, 0.3 mg/kg bw, human whole blood, oral 0.3 mg UV 328/kg body weight, mean ± SD, n = 3.
[7] abbreviates: human, whole blood, po, 0.3 mg/kg bw, human whole blood, oral 0.3 mg UV 328/kg body weight, n = 3, read-out: tmax in blood.
Setting [8] is: human, whole blood, po, 0.3 mg/kg, first elimination phase, human blood, oral 0.3 mg/kg bw, n = 3, read-out: t1/2 (0–24 h) in blood (converted).
Setting [9] is: human, whole blood, po, 0.3 mg/kg, second elimination phase, human blood, oral 0.3 mg/kg bw, n = 3, read-out: t1/2 (24–48 h) in blood (converted).
Where [10] appears, read: sum of plasma concentrations / sum of blood concentrations, one volunteer (n = 1).
[11] abbreviates: post-dosage human urine, collected until 72 h.
Where [12] appears, read: human, in vivo, po, 0.3 mg/kg, t1/2 (0–24 h) in blood.
The mark [13] stands for this setting: human, in vivo, po, 0.3 mg/kg, t1/2 (24–48 h) in blood.
Setting [14] is: human, in vivo, po, tmax in blood.

In the case of `CCC(C)(C)c1cc(C(C)(C)C(C)O)cc(-n2nc3ccccc3n2)c1O` (stereo not drawn) [UV 328-4/3-OH, 2-(2H-benzotriazol-2-yl)-4-(3-hydroxy-2-methylbutan-2-yl)-6-(tert-pentyl)phenol], the Tmax in data set [1] (0.3 mg/kg) worked out at 9.3 h; in data set [2] (setting [7]), 10 h. Besides, the half-life in data set [1] (setting [5]) is 2780 min; in data set [2] (setting [8]) it was 354 min; in data set [2] (setting [9]) it was 942 min. The “REmax (maximum renal excretion rate)” value in data set [1] (oral 0.3 mg/kg bw, n = 3) came to 0.10 ± 0.04 µg/h. Moreover, the “FUE after 24 h (urinary excretion factor as dose equivalents of UV 328)” value in data set [1] (human urine, n = 3) turned out to be 0.004 ± 0.001%. The “FUE after 72 h ≙ Fraction of oral dose” value in data set [1] (human urine, n = 3) was found to be 0.007 ± 0.003%. The “share of cumulative amounts of all quantified analytes in urine” value in data set [1] (n = 3) was 6.1 ± 2.3%. In data set [2] (n = 3), the “share among the quantified metabolites in blood” value is 19.5 ± 4.9%. Moreover, the Cmax in data set [2] (setting [6]) was found to be 7.4 ± 0.9 ng/mL. In data set [2] (whole blood, human blood, 24 h after oral 0.3 mg/kg bw, mean ± SD, n = 3, read-out: mean blood level 24 h after exposure), the concentration at 24 h was determined as 1.5 ± 0.5 ng/mL. Further, in data set [2] (human whole blood, oral 0.3 mg UV 328/kg body weight, n = 3), the tmax in blood is 8 h. Moreover, the “p/b ratio (plasma to blood ratio)” value in data set [3] (setting [10]) is 2.1. The Conjugation ratio in data set [4] turned out to be 100%.

On to `CCC(C)(C)c1cc(-n2nc3ccc(O)cc3n2)c(O)c(C(C)(C)CC)c1` [UV 328-BTOH, 2-(2H-5-hydroxybenzotriazol-2-yl)-4,6-(di-tert-pentyl)phenol], for which the “detection in urine samples after exposure” value (shortened to “detection in urine samples”) in data set [1] (in vivo) is given as “not detected”. Also, the “detection in blood samples after exposure” value in data set [2] (human, in vivo, po, 0.3 mg/kg) is given as “not detected”.

Consider `CC(=O)C(C)(C)c1cc(-n2nc3ccccc3n2)c(O)c(C(C)(C)C(C)O)c1` (stereo not drawn) [UV 328-4/3-CO-6/3-OH, 2-(2H-benzotriazol-2-yl)-4-(2-methylbutan-3-on-2-yl)-6-(3-hydroxy-2-methylbutan-2-yl)phenol], for which the Tmax was 11.3 h in data set [1] (0.3 mg/kg) and 24 to 34 h in data set [2] (setting [7]). The half-life in data set [1] (setting [5]) was 3210 min; in data set [2] (human, whole blood, oral, 0.3 mg/kg bw, human blood, plateau-shaped elimination curve, phase not specified, read-out: elimination half-life in blood) it was above 36000 min; in data set [2] (setting [8]), below 36000 min; in data set [2] (setting [9]) it was below 36000 min. Besides, the “REmax (maximum renal excretion rate)” value in data set [1] (oral 0.3 mg/kg bw, n = 3) was 0.65 ± 0.02 µg/h. Moreover, the “FUE after 24 h (urinary excretion factor as dose equivalents of UV 328)” value in data set [1] (human urine, n = 3) was 0.038 ± 0.010%. Also, the “FUE after 72 h ≙ Fraction of oral dose” value in data set [1] (human urine, n = 3) was 0.081% and 0.081 ± 0.018%. For the same compound, the “t½ (renal elimination half-life)” value in data set [1] (human urine, monophasic, oral 0.3 mg/kg bw, n = 3, 0.3 mg/kg) worked out at 53.3 h. The “detection in urine samples” value in data set [1] (setting [11]) is given as “still detectable in urine after the observed period of 72 h”. Further, the “share of cumulative amounts of all quantified analytes in urine” value in data set [1] (n = 3) was 65.8 ± 10.9%. For the same compound, in data set [2] (n = 3), the “share among the quantified metabolites in blood” value was determined as 13.7 ± 2.5%. In data set [2] (setting [6]), the Cmax came to 4.95 ± 0.72 ng/mL. In addition, the “time at which the plateau of blood levels was reached” value in data set [2] (human blood, post-dosage) was “around 10 h”. The “p/b ratio (plasma to blood ratio)” value in data set [3] (setting [10]) is recorded as 2.0. Further, the Conjugation ratio in data set [4] is reported as 100%.

Turning to `CCC(C)(C)c1cc(-n2nc3ccccc3n2)c(O)c(C(C)(C)C(C)=O)c1` [UV 328-6/3-CO, 2-(2H-benzotriazol-2-yl)-6-(2-methylbutan-3-on-2-yl)-4-(tert-pentyl)phenol], in data set [1] (setting [11]), the “detection in urine samples” value was “not detected”. The “plateau concentration in blood” value in data set [2] (human blood, plateau until 48 h after exposure) is reported as around 0.1 µg/L. For the same compound, the cmax in blood entry in data set [2] (human whole blood, oral 0.3 mg UV 328/kg body weight, mean ± SD, n = 3) is reported as “< LOQ”.

In the case of `CCC(C)(C)c1cc(C(C)(C)C(C)=O)cc(-n2nc3ccccc3n2)c1O` [UV 328-4/3-CO, 2-(2H-benzotriazol-2-yl)-4-(2-methylbutan-3-on-2-yl)-6-(tert-pentyl)phenol], in data set [2] (human, in vivo, po, 0.3 mg/kg), the concentration at 24 h turned out to be 0.9 ± 0.3 ng/mL. In addition, the half-life is 498 min in data set [2] (setting [12]) and 984 min in data set [2] (setting [13]). Further, the time of peak concentration (Tmax) in data set [2] (setting [14]) came to 8 h. Moreover, the “p/b ratio (plasma to blood ratio)” value in data set [3] (human, in vivo) is recorded as 3.2. For the same compound, the Conjugation ratio in data set [4] is on record as 100%.

Consider `CCC(C)(C)c1cc(-n2nc3ccccc3n2)c(O)c(C(C)(C)C(C)O)c1` (stereo not drawn) [UV 328-6/3-OH, 2-(2H-benzotriazol-2-yl)-6-(3-hydroxy-2-methylbutan-2-yl)-4-(tert-pentyl)phenol], for which the concentration at 24 h in data set [2] (human, in vivo, po, 0.3 mg/kg) was 5.2 ± 0.6 ng/mL. Moreover, the half-life was 540 min in data set [2] (setting [12]) and 1070 min in data set [2] (setting [13]). Further, the time of peak concentration (Tmax) in data set [2] (setting [14]) came out at 8 h. This compound gave a tmax in blood in data set [2] (both, human, in vivo, po) of 10 h. In addition, the “p/b ratio (plasma to blood ratio)” value in data set [3] (human, in vivo) is recorded as 2.3. Besides, the “share excreted via urine without conjugation to glucuronic acid or sulfate” value in data set [4] (human, in vivo) is recorded as “about 3%”. Also, the Conjugation ratio in data set [4] amounted to 97%.
